Key:
trypsin = assay: Trypsin protease activity, hydrolysis of BAPNA synthetic substrate (absorbance 415 nm); type: biochemical; conditions: for Trypsin % Inhibited: 37° C., Tricine buffer 50 mM, 10 mM CaCl2
Experimental: (§1) The invention will be better understood by reference to the following nonlimiting examples which illustrate the use of the animal-derived polysaccharide materials of the present invention in inhibiting various enzymes. In these examples the activities of chymopapain and papain were determined by assay using BAPNA, N-benzoyl-L-arginine-p-nitroanilide synthetic substrate by measuring the increase in absorbance at 415 nm. The activity of clostripain was determined by assay using BAEE, N-benzoyl-L-arginine ethyl ester synthetic substrate by measuring the increase in absorbance at […]. The activity of trypsin was determined by assay using BAPNA.
(§2) Protease activity was determined by measuring the reaction rates for the hydrolysis of synthetic substrates for the enzymes trypsin, chymopapain, papain, and clostripain. The increase in absorbance at 415 nm was used for the measurement of the reaction rates for trypsin, chymopapain and papain upon a BAPNA substrate. The increase in absorbance at 253 nm was used for the measurement of the reaction rates for clostripain. Trypsin, chymopapain and papain activities were determined at 37° C. in Tricine buffer, 50 mM, containing 10 mM CaCl2. Clodytipain activity was determined at room temperature. Chymopapain, papain, and clostripain were activated with L-cysteine or dithiothreitol reducing agent prior to assay. Concentration of reducing agent in the substrate solution was maintained at 5 mM by addition of reducing agent to the substrate solution.
(§3) Glycogen was dissolved in the assay buffer to a final concentration of 1%. The percentage inhibition was obtained from the ratio of enzyme activity in the presence of inhibitor to the activity of a control to which no inhibitor was added.

chymopapain = assay: Chymopapain protease activity, hydrolysis of BAPNA synthetic substrate (absorbance 415 nm); type: biochemical, papaya; conditions: for Chymopapain % Inhibited: 37° C., Tricine buffer 50 mM, 10 mM CaCl2
Experimental: as §1, §2, §3

papain = assay: Papain protease activity, hydrolysis of BAPNA synthetic substrate (absorbance 415 nm); type: biochemical, papaya; conditions: 37° C., Tricine buffer 50 mM, 10 mM CaCl2
Experimental: as §1, §2
The percentage inhibition was obtained from the ratio of enzyme activity in the presence of inhibitor to the activity of a control to which no inhibitor was added.

clostripain = assay: Clostripain protease activity, hydrolysis of BAEE synthetic substrate (absorbance 253 nm); type: biochemical; conditions: for Clostripain % Inhibited: room temperature
Experimental: as §1, §2, §3

[1] = inhibitor concentration 0.5%, listed as hyaluronic acid
[2] = inhibitor concentration 1%, listed as glycogen

Row | Substance | Trypsin % Inhibited (trypsin; inhibitor concentration 0.5%) [%] | Trypsin % Inhibited (trypsin; [1]) | Chymopapain % Inhibited (chymopapain; inhibitor concentration 0.5%) [%] | Chymopapain % Inhibited (chymopapain; [1]) | Papain % Inhibited (papain; inhibitor concentration 0.5%) [%] | Papain % Inhibited (papain; [1]) | Clostripain % Inhibited (clostripain; inhibitor concentration 0.5%) [%] | Clostripain % Inhibited (clostripain; [1]) | Trypsin % Inhibited (trypsin; inhibitor concentration 1%) [%] | Trypsin % Inhibited (trypsin; [2]) | effectiveness as inhibitor of chymopapain and papain activity relative to trypsin activity (chymopapain; inhibitor concentration 1%) | Chymopapain % Inhibited (chymopapain; inhibitor concentration 1%) [%] | Papain % Inhibited (papain; inhibitor concentration 1%) [%] | Clostripain % Inhibited (clostripain; inhibitor concentration 1%) [%] | Clostripain % Inhibited (clostripain; [2]) | effectiveness in inhibiting trypsin relative to chymopapain and papain (trypsin; inhibitor concentration 0.5%) | effectiveness in inhibiting clostripain relative to chymopapain and papain (clostripain; inhibitor concentration 0.5%)
1 | Hyaluronic acid | 0 | no inhibiting effect | 34.2 | effective | 35.8 | effective | 0 | no inhibiting effect | – | – | – | – | – | – | – | – | –
2 | Glycogen | – | – | – | – | – | – | – | – | 1.1 | about 1% | 10-20 times | 17 | 12.5 | 0 | no inhibiting effect | – | –
3 | Desulfated heparin | 4.1 | – | 8.8 | – | 9.8 | – | 0.8 | – | – | – | – | – | – | – | – | less than one-half as effective | about one-tenth as effective
